# Assays:
# Lactuca sativa = assay: Phytotoxicity in naked Lactuca sativa (lettuce) after compound application for 1 hr through two-tier reduced pressure fumigation at 30 mmHg for 0.5 hr and then 760 mmHg for 1.5 hr at 23 +/- 1 degC; type: organism-based; conditions: in vivo
# [1] = system: Brassica oleracea var. capitata; assay: Phytotoxicity in Brassica oleracea var. capitata (cabbage) assessed as induction of visual damage after compound application for 1 hr through two-tier reduced pressure fumigation at 30 mmHg for 0.5 hr and then 760 mmHg for 1.5 hr at 23 +/- 1 degC; type: organism-based; conditions: in vivo
# [2] = system: Brassica oleracea var. capitata; assay: Phytotoxicity in Brassica oleracea var. capitata (cabbage) after compound application for 1 hr through two-tier reduced pressure fumigation at 30 mmHg for 0.5 hr and then 760 mmHg for 1.5 hr at 23 +/- 1 degC; type: organism-based; conditions: in vivo
# Citrus limon = assay: Phytotoxicity in Citrus limon (lemon) assessed as induction of olfactory damage after compound application for 1 hr through two-tier reduced pressure fumigation at 30 mmHg for 0.5 hr and then 760 mmHg for 1.5 hr at 23 +/- 1 degC; type: organism-based; conditions: citrus x limon, in vivo
# Vitis vinifera = assay: Phytotoxicity in Vitis vinifera assessed as induction of olfactory damage after compound application for 1 hr through two-tier reduced pressure fumigation at 30 mmHg for 0.5 hr and then 760 mmHg for 1.5 hr at 23 +/- 1 degC; type: organism-based; conditions: in vivo
# Myzus persicae = assay: Insecticidal activity against Myzus persicae (green peach aphid) placed under third leaf of naked Iceburg lettuce heads and after compound application for 2 hr through two-tier reduced pressure fumigation at 30 mmHg for 0.5 hr and then 760 mmHg for 1.5 hr at 23 +/- 1 degC measured after 24 hr; type: functional
# Citrus sinensis = assay: Phytotoxicity in Citrus sinensis (orange) assessed as induction of olfactory damage after compound application for 1 hr through two-tier reduced pressure fumigation at 30 mmHg for 0.5 hr and then 760 mmHg for 1.5 hr at 23 +/- 1 degC; type: organism-based; conditions: in vivo
# Persea americana = assay: Phytotoxicity in Persea americana (avocado) assessed as induction of visual damage after compound application for 1 hr through two-tier reduced pressure fumigation at 30 mmHg for 0.5 hr and then 760 mmHg for 1.5 hr at 23 +/- 1 degC; type: organism-based; conditions: in vivo
# [3] = system: Brassica oleracea var. italica; assay: Phytotoxicity in Brassica oleracea var. italica assessed as induction of olfactory damage after compound application for 1 hr through two-tier reduced pressure fumigation at 30 mmHg for 0.5 hr and then 760 mmHg for 1.5 hr at 23 +/- 1 degC; type: organism-based; conditions: in vivo
compound,measurement,setting,value
CCC=O [PROPIONALDEHYDE],Activity,Lactuca sativa,Toxic
same,Activity,[1],Non-toxic
same,Activity,[2],Toxic
same,Activity,Citrus limon,Non-toxic
same,Activity,Vitis vinifera,Non-toxic
same,CTP,Myzus persicae,304 mg/L.hr
same,LD90,Myzus persicae,124.5 mg/L
same,Activity,Citrus sinensis,Non-toxic
same,Activity,Persea americana,Non-toxic
same,Activity,[3],Toxic
